Legend:
RORγ-LBD = biological target: T1, RORγ-LBD (Homo sapiens, UniProt P51449); experiment: RORγ-Ligand Binding Domain (LBD) TR-FRET Assay; assay type: biochemical;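 on TR-FRET Assay Max Response: 665/615 nm ratio relative to signal without ursolic acid or compound set at 100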
T1 construct: made in house; host or cells: SF9 cells (baculovirus)
T1 sequence (P51449 269-508 limits assumed): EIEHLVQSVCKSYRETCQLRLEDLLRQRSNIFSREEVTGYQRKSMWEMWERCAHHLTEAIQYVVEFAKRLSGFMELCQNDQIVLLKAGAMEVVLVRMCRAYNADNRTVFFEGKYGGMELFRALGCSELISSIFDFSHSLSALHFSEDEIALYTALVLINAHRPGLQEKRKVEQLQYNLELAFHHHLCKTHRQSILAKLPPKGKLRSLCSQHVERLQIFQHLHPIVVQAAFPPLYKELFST
Method in brief: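 SF9 lysate containing His-RORγ-LBD, ~3 nM final; coactivator peptide biotin-SRC1 LXXLL, 200 nM final; ursolic acid 2 μM final; DMSO 1% final; Tris pH 7.0 buffer with KCl, EDTA, DTT, BSA. TR-FRET format.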

Gal4-RORγ-LBD = biological target: T2, Gal4-RORγ-LBD (Homo sapiens, UniProt P51449); experiment: Gal4-RORγ Luciferase Reporter Assay in HEK-293T Cells; assay type: cell-based; conditions: HEK-293 cells
T2 construct: expressed in transfected cells; host or cells: HEK-293 cells (pcDNA3.1neo plasmid)
T2 sequence (P51449 269-508 limits assumed): T1 sequence (P51449 269-508 limits assumed)
Method in brief: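 In transfected HEK-293 cells (Gal4-RORγ-LBD, Gal4-luciferase), test agents with 2 μM ursolic acid were incubated overnight at 37 °C before luminescent detection. Values are relative to the ursolic-acid-free, compound-free signal (100).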

[1] = luciferase reporter, with 2 μM ursolic acid

EC50 (RORγ-LBD) [nM] | EC50 (Gal4-RORγ-LBD; [1]) [nM] | EC50 (Gal4-RORγ-LBD; 2 μM ursolic acid) [nM] | Structure (SMILES) | TR-FRET Assay Max Response (RORγ-LBD) | Gal4-RORγ Assay Max Response (Gal4-RORγ-LBD; [1]) | Gal4-RORγ Assay Max Response (Gal4-RORγ-LBD; 2 μM ursolic acid)
< 500 | < 500 | – | COc1cc(F)cc(-c2ccc3c(c2)N(S(=O)(=O)c2cccc(C(F)(F)F)c2)C[C@H](CNC(=O)[C@@](C)(O)C(F)(F)F)O3)c1F [Compound 30BF, (R)-N-(((S)-6-(2,5-difluoro-3-methoxyphenyl)-4-((3-(trifluoro-methyl)phenyl)sulfonyl)-3,4-dihydro-2H-benzo[b][1,4]-oxazin-2-yl)methyl)-3,3,3-trifluoro-2-hydroxy-2-methylpropanamide] | **** (The symbol “****” indicates a value greater than 200) | * (The symbol “*” indicates a value in the range of 25 to 90) | –
< 500 | 500 to 5000 | – | NS(=O)(=O)CCC(=O)NC[C@H]1CN(S(=O)(=O)c2cccc(C(F)(F)F)c2)c2cc(-c3cccc(C(F)(F)F)n3)ccc2O1 [Compound 30BG, (S)-3-sulfamoyl-N-((4-((3-(trifluoromethyl)phenyl)-sulfonyl)-6-(6-(trifluoro-methyl)pyridin-2-yl)-3,4-dihydro-2H-benzo[b][1,4]-oxazin-2-yl)methyl)-propanamide] | *** (The symbol “***” indicates a value in the range of greater than 150 to 200) | ** (The symbol “**” indicates a value in the range of greater than 90 to 150) | –
< 500 | 500 to 5000 | – | N#CCC(=O)NC[C@H]1CN(S(=O)(=O)c2cccc(C(F)(F)F)c2)c2cc(-c3cccc(C(F)(F)F)n3)ccc2O1 [Compound 30BH, (S)-2-cyano-N-((4-((3-(trifluoromethyl)phenyl)-sulfonyl)-6-(6-(trifluoro-methyl)pyridin-2-yl)-3,4-dihydro-2H-benzo[b][1,4]-oxazin-2-yl)methyl)acetamide] | *** (The symbol “***” indicates a value in the range of greater than 150 to 200) | ** (The symbol “**” indicates a value in the range of greater than 90 to 150) | –
< 500 | 500 to 5000 | – | CC(C)(CO)C(=O)NC[C@H]1CN(S(=O)(=O)c2cccc(C(F)(F)F)c2)c2cc(-c3cccc(C(F)(F)F)n3)ccc2O1 [Compound 30BI, (S)-3-hydroxy-2,2-dimethyl-N-((4-((3-(trifluoromethyl)-phenyl)sulfonyl)-6-(6-(trifluoromethyl)pyridin-2-yl)-3,4-dihydro-2H-benzo[b][1,4]-oxazin-2-yl)methyl)-propanamide] | *** (The symbol “***” indicates a value in the range of greater than 150 to 200) | * (The symbol “*” indicates a value in the range of 25 to 90) | –
500 to 5000 | – | > 10000 | Cn1cc(C(=O)NC[C@H]2CN(S(=O)(=O)c3cccc(C(F)(F)F)c3)c3cc(-c4cccc(C(F)(F)F)n4)ccc3O2)c(C(F)(F)F)n1 [Compound 30BN, (S)-1-methyl-3-(trifluoro-methyl)-N-((4-((3-(trifluoro-methyl)phenyl)sulfonyl)-6-(6-(trifluoromethyl)pyridin-2-yl)-3,4-dihydro-2H-benzo[b][1,4]-oxazin-2-yl)methyl)-1H-pyrazole-4-carboxamide] | *** (The symbol “***” indicates a value in the range of greater than 150 to 200) | – | * (The symbol “*” indicates a value in the range of 25 to 90)
500 to 5000 | – | 500 to 5000 | CC(C)(C(=O)NC[C@H]1CN(S(=O)(=O)c2cccc(C(F)(F)F)c2)c2cc(-c3cccc(C(F)(F)F)n3)ccc2O1)C(F)(F)F [Compound 30BY, (S)-3,3,3-trifluoro-2,2-dimethyl-N-((4-((3-(trifluoromethyl)-phenyl)sulfonyl)-6-(6-(trifluoro-methyl)pyridin-2-yl)-3,4-dihydro-2H-benzo[b][1,4]-oxazin-2-yl)methyl)propanamide] | *** (The symbol “***” indicates a value in the range of greater than 150 to 200) | – | * (The symbol “*” indicates a value in the range of 25 to 90)
< 500 | – | < 500 | CC(C)(F)C(=O)NC[C@H]1CN(S(=O)(=O)c2cccc(C(F)(F)F)c2)c2cc(-c3cccc(F)c3Cl)ccc2O1 [Compound 30BZ, (S)-N-((6-(2-chloro-3-fluoro-phenyl)-4-((3-(trifluoromethyl)-phenyl)sulfonyl)-3,4-dihydro-2H-benzo[b][1,4]oxazin-2-yl)methyl)-2-fluoro-2-methylpropanamide] | **** (The symbol “****” indicates a value greater than 200) | – | * (The symbol “*” indicates a value in the range of 25 to 90)
< 500 | < 500 | – | CC(C)(O)C(=O)NCC[C@H]1CN(S(=O)(=O)c2cccc(C(F)(F)F)c2)c2cc(-c3cncc(C(F)(F)F)c3)ccc2O1 [Compound 30C, (S)-2-hydroxy-2-methyl-N-(2-(4-((3-(trifluoromethyl)-phenyl)sulfonyl)-6-(5-(trifluoromethyl)pyridin-3-yl)-3,4-dihydro-2H-benzo[b][1,4]oxazin-2-yl)ethyl)propanamide] | **** (The symbol “****” indicates a value greater than 200) | * (The symbol “*” indicates a value in the range of 25 to 90) | –
< 500 | – | < 500 | O=C(NC[C@H]1CN(S(=O)(=O)c2cccc(C(F)(F)F)c2)c2cc(-c3cccc(F)c3Cl)ccc2O1)C(=O)C1CC1 [Compound 30CA, (S)-N-((6-(2-chloro-3-fluoro-phenyl)-4-((3-(trifluoromethyl)-phenyl)sulfonyl)-3,4-dihydro-2H-benzo[b][1,4]oxazin-2-yl)methyl)-2-cyclopropyl-2-oxoacetamide] | *** (The symbol “***” indicates a value in the range of greater than 150 to 200) | – | * (The symbol “*” indicates a value in the range of 25 to 90)
< 500 | – | < 500 | O=C(NC[C@H]1CN(S(=O)(=O)c2cccc(C(F)(F)F)c2)c2cc(-c3cccc(F)c3Cl)ccc2O1)C1(CO)CC1 [Compound 30CB, (S)-N-((6-(2-chloro-3-fluoro-phenyl)-4-((3-(trifluoromethyl)-phenyl)sulfonyl)-3,4-dihydro-2H-benzo[b][1,4]oxazin-2-yl)methyl)-1-(hydroxymethyl)-cyclopropane-1-carboxamide] | *** (The symbol “***” indicates a value in the range of greater than 150 to 200) | – | * (The symbol “*” indicates a value in the range of 25 to 90)
< 500 | – | < 500 | COc1cc(S(=O)(=O)N2C[C@H](CNC(=O)[C@@](C)(O)C(F)(F)F)Oc3ccc(-c4cccc(C(F)(F)F)n4)cc32)ccc1F [Compound 30CC, (R)-3,3,3-trifluoro-N-(((S)-4-((4-fluoro-3-methoxyphenyl)-sulfonyl)-6-(6-(trifluoromethyl)-pyridin-2-yl)-3,4-dihydro-2H-benzo[b][1,4]oxazin-2-yl)methyl)-2-hydroxy-2-methylpropanamide] | *** (The symbol “***” indicates a value in the range of greater than 150 to 200) | – | ** (The symbol “**” indicates a value in the range of greater than 90 to 150)
< 500 | – | < 500 | Cn1cc(C(=O)NC[C@H]2CN(S(=O)(=O)c3cccc(C(F)(F)F)c3)c3cc(-c4cccc(F)c4Cl)ccc3O2)cn1 [Compound 30CD, (S)-N-((6-(2-chloro-3-fluoro-phenyl)-4-((3-(trifluoromethyl)-phenyl)sulfonyl)-3,4-dihydro-2H-benzo[b][1,4]oxazin-2-yl)methyl)-1-methyl-1H-pyrazole-4-carboxamide] | *** (The symbol “***” indicates a value in the range of greater than 150 to 200) | – | ** (The symbol “**” indicates a value in the range of greater than 90 to 150)
< 500 | – | < 500 | CC(F)(F)C(=O)NC[C@H]1CN(S(=O)(=O)c2cccc(C(F)(F)F)c2)c2cc(-c3cccc(F)c3Cl)ccc2O1 [Compound 30CE, (S)-N-((6-(2-chloro-3-fluoro-phenyl)-4-((3-(trifluoromethyl)-phenyl)sulfonyl)-3,4-dihydro-2H-benzo[b][1,4]oxazin-2-yl)methyl)-2,2-difluoro-propanamide] | *** (The symbol “***” indicates a value in the range of greater than 150 to 200) | – | * (The symbol “*” indicates a value in the range of 25 to 90)
< 500 | – | < 500 | O=C(NC[C@H]1CN(S(=O)(=O)c2cccc(C(F)(F)F)c2)c2cc(-c3cccc(F)c3Cl)ccc2O1)C1CC1 [Compound 30CF, (S)-N-((6-(2-chloro-3-fluoro-phenyl)-4-((3-(trifluoromethyl)-phenyl)sulfonyl)-3,4-dihydro-2H-benzo[b][1,4]oxazin-2-yl)methyl)cyclopropanecarbox-amide] | **** (The symbol “****” indicates a value greater than 200) | – | ** (The symbol “**” indicates a value in the range of greater than 90 to 150)

From US10611740B2, “Aryl dihydro-2H-benzo[b][1,4]oxazine sulfonamide and related compounds for use as agonists of RORγ and the treatment of disease” (Lycera Corporation, priority 2015, dated 2020)
